According to patent publication US5079260A, “Method for treating inflammation and compounds and compositions suitable for use therein” (Nova Pharmaceutical Corporation, priority 1990, dated 1992):

Key:
[1] = test system: Ear Edema Caused by Tetradecanoylphorbolacetate; assay: Inhibition of Ear Edema Caused by Tetradecanoylphorbolacetate (I), Table 1; type: in vivo, CF-1 Mice
From the text: (§1) Such inflammatory agents typically include tetradecanoylphorbolacetate, arachidonic acid, xylene, capsaicin, oxazolone, carrageenan and the like. The reverse passive Arthus test offers another measure of the compound's utility in preventing an inflammatory response (Chang et al, Eur. J. Pharm. 69:155-164 (1981)). Test compounds are typically administered intraperitoneally or topically. For intraperitoneal administration, the test compound can be given in dimethyl sulfoxide or in 0.5% methylcellulose 30 minutes prior to administration of the irritant. For topical administration, the test compound can be dissolved in, for example, acetone, ethanol or dimethyl sulfoxide and applied about 15 minutes prior to application of the irritant. Results can be expressed as the percent decrease in swelling in the compound-treated animals as compared to control animals that receive only the irritant.
Inhibition of Ear Edema Caused by Tetradecanoylphorbolacetate (I)
CF-1 Mice, 25-30 g body weight, six animals per group, were used. Test compounds (compounds of Formula I where X is oxygen, R3, R4, A and B are hydrogen and Q is as indicated in Table 1) were administered intraperitoneally (100 mg/kg) or topically as follows. For intraperitoneal administration, the test compound was dissolved in dimethyl sulfoxide or 0.5% methylcellulose and 100 μl was injected 30 minutes prior to irritant (100 mg/kg, i.p.). For topical administration, the test compound was dissolved in either acetone, ethanol or dimethyl sulfoxide and 5 μl (100 μg) applied to the upper surface (1 cm^2) of the ear and an additional 5 μl (100 μg) applied to the lower surface (1 cm^2) of the ear fifteen minutes prior to application of the irritant. A solution of the irritant, tetradecanoylphorbolacetate, 200 μg/ml, was added to the surface of the ear, 5 μl added to the upper surface and 5 μl to the lower surface. After three hours, the thickness of the ear was measured to 0.01 mm by a micrometer with loose drag positioned at the lateral-most edge of the mid-point of the pinna. Data were calculated as the inhibition by the test compound of increased ear thickness compared to control animals receiving only the irritant.

[2] = test system: Ear Edema Caused by Arachidonic Acid; assay: Inhibition of Ear Edema Caused by Arachidonic Acid (I), Table 2; type: in vivo, CF-1 Mice; details: i.p., 100 mg/kg; ear thickness at sixty minutes
From the text: as §1
Inhibition of Ear Edema Caused by Arachidonic Acid (I)
CF-1 Mice, 25-30 g body weight, six animals per group, were used. Test compounds (compounds of Formula I where X is oxygen, R3, R4, A and B are hydrogen and Q is as indicated in Table 2) were administered intraperitoneally (100 mg/kg) as follows. For intraperitoneal administration, test compound was dissolved in DMSO or 0.5% methylcellulose and 100 μl was injected 30 minutes prior to i.p. administration of 100 mg/kg of arachidonic acid. A solution of the irritant, arachidonic acid, 100 mg/ml in ethanol, was added to the surface of the ear, 5 μl added to the upper surface and 5 μl to the lower surface. After sixty minutes, the thickness of the ear was measured to 0.01 mm by a micrometer with loose drag positioned at the lateral-most edge of the mid-point of the pinna. Data were calculated as the percent inhibition by the test compound of increased ear thickness compared to control animals receiving only the irritant.

[3] = test system: Ear Edema Caused by Xylene; assay: Inhibition of Ear Edema Caused by Xylene (I), Table 3; type: in vivo, CF-1 Mice; details: 2 h
From the text: as §1
Inhibition of Ear Edema Caused by Xylene (I)
CF-1 Mice, 25-30 g body weight, six animals per group, were used. Test compounds (compounds of Formula I where X is oxygen, R3, R4, A and B are hydrogen and Q is as indicated in Table 3) were administered intraperitoneally (100 mg/kg) or topically as follows. For intraperitoneal administration, the test compound was dissolved in DMSO or 0.5% methylcellulose and 100 μl was injected 30 minutes prior to irritant. For topical administration, test compound was dissolved in either acetone, ethanol or dimethyl sulfoxide and 5 μl (10 μg) applied to the upper surface (1 cm^2) of the ear and an additional 5 μl (10 μg) applied to the lower surface (1 cm^2) of the ear fifteen minutes prior to application of the irritant. The irritant, xylene, was added to the surface of the ear, 20 μl added to the upper surface and 20 μl to the lower surface. After two hours, the thickness of the ear was measured to 0.01 mm by a micrometer with loose drag positioned at the lateral-most edge of the mid-point of the pinna. Data were calculated as the inhibition by the test compound of increased ear thickness compared to that of control animals receiving only the irritant.

[4] = test system: Ear Edema Caused by Capsaicin; assay: Inhibition of Ear Edema Caused by Capsaicin, Table 4; type: in vivo, CF-1 Mice
From the text: as §1
Inhibition of Ear Edema Caused by Capsaicin
CF-1 Mice, 25-30 g body weight, six animals per group, were used. […] After thirty minutes, the thickness of the ear was measured to 0.01 mm by a micrometer with loose drag positioned at the lateral-most edge of the mid-point of the pinna. Data were calculated as the inhibition by the test compound of increased ear thickness compared to control animals receiving only the irritant.

[5] = test system: Ear Edema Caused by Oxazolone; assay: Inhibition of Ear Edema Caused by Oxazolone (I), Table 5; type: in vivo, CF-1 Mice; details: i.p., 100 mg/kg, 30 min before irritant; sensitized mice; 24 h
From the text: as §1
Inhibition of Ear Edema Caused by Oxazolone (I)
CF-1 Mice, 25-30 g body weight, six animals per group, were used. The mice were sensitized to the irritant two weeks prior to the test by dribbling 100 μl of a 3% solution of oxazolone in acetone onto the abdominal skin of the animal. Test compounds (compounds of Formula I where X is oxygen, R3, R4, A and B are hydrogen and Q is as indicated in Table 5) were administered intraperitoneally as follows. The test compound was dissolved in DMSO or 0.5% methylcellulose and 100 μl (100 mg/kg) was injected 30 minutes prior to irritant. The irritant, 3% oxazolone in acetone, was added to the surface of the ear, 5 μl added to the upper surface and 5 μl to the lower surface. After twenty four hours, the thickness of the ear was measured to 0.01 mm by a micrometer with loose drag positioned at the lateral-most edge of the mid-point of the pinna. Data were calculated as the inhibition by the test compound of increased ear thickness compared to control animals receiving only the irritant.

[6] = test system: Reverse Passive Artus Reaction; assay: Reverse Passive Artus Reaction (I), Table 6; type: in vivo, Male CD rats; details: inhibition of blueing; i.p., 100 mg/kg, one hour before antigen
From the text: as §1
Reverse Passive Artus Reaction (I)
Male CD rats weighing between 200 and 250 g were used. Test compounds (compounds of Formula I where X is oxygen, R3, R4, A and B are hydrogen and Q is as indicated in Table 6) were dissolved in dimethyl sulfoxide and 200 μl of this solution (100 mg/kg) were injected intraperitoneally one hour before administration of the antigen. The animals were anesthetized inhalationally with isoflurane and then were injected through the penile vein with 1 ml of a solution of 2.5 mg of Evan's blue dye and 5.0 mg of human serum albumin in 1 ml of saline. This treatment was followed immediately by intracutaneous injections of 0.03 ml of anti-human albumin diluted to contain 3.65 mg of antibody at 3 sites along the midline back. Anesthesia was terminated and after three hours the animals were sacrificed. The skin was removed and the blue stained areas cut out. […] The tube contents were agitated and centrifuged, and the absorbance of the supernatant liquid was measured at 620 nm. The data were calculated as inhibition of blueing by test compound compared to control animals receiving only antigen and antibody.

[7] = test system: Ear Edema Caused by Arachidonic Acid; assay: Inhibition of Ear Edema Caused by Arachidonic Acid (I), Table 2; type: in vivo, CF-1 Mice; details: dose not given in Example 4, sixty minutes

Row | Molecule | % Inhibition Intraperitoneal ([1]; i.p., 100 mg/kg, 30 min before irritant, ear thickness at 3 h) [%] | % Inhibition, topical ([1]; topical, 100 μg upper + 100 μg lower ear surface, 15 min before irritant, 3 h) [%] | % Inhibition Intraperitoneal [2] [%] | % Inhibition Intraperitoneal ([3]; i.p., 100 mg/kg, 30 min before irritant) [%] | % Inhibition, topical ([3]; topical, 10 μg upper + 10 μg lower ear surface, 15 min before irritant) [%] | % Inhibition Intraperitoneal ([4]; i.p., 100 mg/kg, 30 min before irritant, ear thickness at thirty minutes) [%] | % Inhibition Intraperitoneal [5] [%] | % Inhibition Intraperitoneal [6] [%] | % Inhibition, topical [7] [%] | % Inhibition Intraperitoneal ([3]; Reference Standard, 100 μg/ear) [%] | % Inhibition Intraperitoneal ([4]; Reference Standard, 100 μg/ear, thirty minutes) [%]
1 | CC(C)C[C@H](NC(=O)OCC1c2ccccc2-c2ccccc21)C(=O)O [L-Leucine, N-[(9H-Fluoren-9-ylmethoxy)carbonyl]-L-leucine] | 54 | 41 | 62 | 47 | 66 | 74 | 58 | 48 | 41 | – | –
2 | D-Pro^2 -D-Trp^7.9 -Substance P [reference compound] | – | – | – | – | – | – | – | – | – | 44 | 34
